Values of other authors in PMC8513935.

How the values were obtained:
[1] = log P octanol/water from commercial databases, averaged (the ESI); details: Octanol (wet), 25 C
[2] = experimental, compiled by the authors from the literature (the ESI cites the sources)
[3] = derived by the authors as gas->solvent minus gas->water (a hypothetical dry solvent; the ESI), not a two-phase measurement

SMILES | log K of transfer, water to solvent [1] [log10 K] | log K of transfer, gas to solvent ([2]; Hexadecane, 25 C) [log10 K] | log K of transfer, gas to solvent ([2]; Water, 25 C) [log10 K] | log K of transfer, water to solvent ([3]; Hexadecane, 25 C) [log10 K] | log K of transfer, gas to solvent ([2]; Di-n-butyl ether, 25 C) [log10 K] | log K of transfer, gas to solvent ([2]; Methanol, 25 C) [log10 K] | log K of transfer, water to solvent ([3]; Di-n-butyl ether, 25 C) [log10 K] | log K of transfer, water to solvent ([3]; Methanol, 25 C) [log10 K] | log K of transfer, gas to solvent ([2]; 1,2-Dichloroethane, 25 C) [log10 K] | log K of transfer, gas to solvent ([2]; Butan-1-ol, 25 C) [log10 K] | log K of transfer, gas to solvent ([2]; Butan-2-ol, 25 C) [log10 K] | log K of transfer, gas to solvent ([2]; Butanone, 25 C) [log10 K] | log K of transfer, gas to solvent ([2]; CCl4, 25 C) [log10 K] | log K of transfer, gas to solvent ([2]; Hexane, 25 C) [log10 K] | log K of transfer, gas to solvent ([2]; Pentan-1-ol, 25 C) [log10 K] | log K of transfer, gas to solvent ([2]; Propan-1-ol, 25 C) [log10 K] | log K of transfer, gas to solvent ([2]; Propan-2-ol, 25 C) [log10 K] | log K of transfer, water to solvent ([3]; 1,2-Dichloroethane, 25 C) [log10 K] | log K of transfer, water to solvent ([3]; CCl4, 25 C) [log10 K] | log K of transfer, gas to solvent ([2]; Chlorobenzene, 25 C) [log10 K] | other results
C/C=C\C | 2.33 | 1.74 | -0.99 | 2.73 | – | – | – | – | – | – | – | – | – | – | – | – | – | – | – | – | –
O=C1CCCC1 | 0.38 | 3.22 | 3.45 | -0.229 | 3.53 | – | 0.08 | – | 4.59 | – | – | – | 4.06 | – | – | – | – | 1.14 | 0.61 | – | log K of transfer, gas to solvent ([2]; Octan-1-ol, 25 C): 3.67 log10 K; log K of transfer, water to solvent ([3]; Octan-1-ol(dry), 25 C): 0.22 log10 K
CCCC(C)=O | 0.84 | 2.75 | 2.58 | 0.175 | – | 3.58 | – | 0.999 | – | – | – | – | 3.52 | – | – | – | – | – | 0.94 | 3.87 | log K of transfer, gas to solvent ([2]; Benzene, 25 C): 3.77 log10 K; log K of transfer, gas to solvent ([2]; Cyclohexane, 25 C): 2.98 log10 K; log K of transfer, gas to solvent ([2]; Octan-1-ol, 25 C): 3.19 log10 K; log K of transfer, gas to solvent ([2]; Toluene, 25 C): 3.68 log10 K; log K of transfer, water to solvent ([3]; Benzene, 25 C): 1.19 log10 K; log K of transfer, water to solvent ([3]; Chlorobenzene, 25 C): 1.29 log10 K; log K of transfer, water to solvent ([3]; Cyclohexane, 25 C): 0.4 log10 K; log K of transfer, water to solvent ([3]; Octan-1-ol(dry), 25 C): 0.61 log10 K; log K of transfer, water to solvent ([3]; Toluene, 25 C): 1.1 log10 K

Continued, in another order:

log K of transfer, water to solvent [1] [log10 K] | log K of transfer, gas to solvent ([2]; Hexadecane, 25 C) [log10 K] | log K of transfer, gas to solvent ([2]; Water, 25 C) [log10 K] | log K of transfer, water to solvent ([3]; Hexadecane, 25 C) [log10 K] | log K of transfer, gas to solvent ([2]; Di-n-butyl ether, 25 C) [log10 K] | log K of transfer, gas to solvent ([2]; Methanol, 25 C) [log10 K] | log K of transfer, water to solvent ([3]; Di-n-butyl ether, 25 C) [log10 K] | log K of transfer, water to solvent ([3]; Methanol, 25 C) [log10 K] | log K of transfer, gas to solvent ([2]; 1,2-Dichloroethane, 25 C) [log10 K] | log K of transfer, gas to solvent ([2]; Butan-1-ol, 25 C) [log10 K] | log K of transfer, gas to solvent ([2]; Butan-2-ol, 25 C) [log10 K] | log K of transfer, gas to solvent ([2]; Butanone, 25 C) [log10 K] | log K of transfer, gas to solvent ([2]; CCl4, 25 C) [log10 K] | log K of transfer, gas to solvent ([2]; Hexane, 25 C) [log10 K] | log K of transfer, gas to solvent ([2]; Pentan-1-ol, 25 C) [log10 K] | log K of transfer, gas to solvent ([2]; Propan-1-ol, 25 C) [log10 K] | log K of transfer, gas to solvent ([2]; Propan-2-ol, 25 C) [log10 K] | log K of transfer, water to solvent ([3]; 1,2-Dichloroethane, 25 C) [log10 K] | log K of transfer, water to solvent ([3]; CCl4, 25 C) [log10 K] | SMILES | log K of transfer, gas to solvent ([2]; Chlorobenzene, 25 C) [log10 K] | other results
2.04 | 3.7 | 2.25 | 1.45 | 4.12 | 4.23 | 1.87 | 1.98 | – | – | – | – | – | – | – | – | – | – | – | CCCC(=O)CCC | – | –
1.45 | 3.04 | 2.36 | 0.68 | – | 3.84 | – | 1.48 | 3.21 | 3.56 | 3.53 | 3.05 | 3.54 | 3.29 | 3.64 | 3.5 | 3.31 | 0.85 | 1.18 | CCN(CC)CC | 3.35 | log K of transfer, gas to solvent ([2]; Chloroform, 25 C): 4.22 log10 K; log K of transfer, gas to solvent ([2]; Cyclohexanone, 25 C): 3.01 log10 K; log K of transfer, gas to solvent ([2]; Diethyl Ether, 25 C): 3.26 log10 K; log K of transfer, gas to solvent ([2]; Ethanol, 25 C): 3.57 log10 K; log K of transfer, gas to solvent ([2]; Propanone, 25 C): 2.97 log10 K; log K of transfer, gas to solvent ([2]; Tetrahydrofuran, 25 C): 3.37 log10 K; log K of transfer, water to solvent ([3]; Acetone, 25 C): 0.61 log10 K; log K of transfer, water to solvent ([3]; Butan-1-ol, 25 C): 1.2 log10 K; log K of transfer, water to solvent ([3]; Butan-2-ol, 25 C): 1.17 log10 K; log K of transfer, water to solvent ([3]; Butanone, 25 C): 0.69 log10 K; log K of transfer, water to solvent ([3]; Chlorobenzene, 25 C): 0.99 log10 K; log K of transfer, water to solvent ([3]; Chloroform, 25 C): 1.86 log10 K; log K of transfer, water to solvent ([3]; Cyclohexanone, 25 C): 0.654 log10 K; log K of transfer, water to solvent ([3]; Diethyl Ether, 25 C): 0.9 log10 K; log K of transfer, water to solvent ([3]; Ethanol, 25 C): 1.21 log10 K; log K of transfer, water to solvent ([3]; Hexane, 25 C): 0.93 log10 K; log K of transfer, water to solvent ([3]; Pentan-1-ol, 25 C): 1.28 log10 K; log K of transfer, water to solvent ([3]; Propan-1-ol, 25 C): 1.14 log10 K; log K of transfer, water to solvent ([3]; Propan-2-ol, 25 C): 0.95 log10 K; log K of transfer, water to solvent ([3]; Tetrahydrofuran, 25 C): 1.01 log10 K
1.77 | 0.946 | -0.97 | 1.92 | – | 0.95 | – | 1.92 | – | 1.03 | 0.97 | 1.13 | 1.35 | 1.29 | 0.97 | 0.99 | 0.97 | – | 2.32 | C=CC | – | log K of transfer, gas to solvent ([2]; 2-Methylpropan-1-ol, 25 C): 0.95 log10 K; log K of transfer, gas to solvent ([2]; 2-Methylpropan-2-ol, 25 C): 0.99 log10 K; log K of transfer, gas to solvent ([2]; 3-Methylbutan-1-ol, 25 C): 0.963 log10 K; log K of transfer, water to solvent ([3]; 2-Methylpropan-1-ol, 25 C): 1.92 log10 K; log K of transfer, water to solvent ([3]; 2-Methylpropan-2-ol, 25 C): 1.96 log10 K; log K of transfer, water to solvent ([3]; 3-Methylbutan-1-ol, 25 C): 1.93 log10 K; log K of transfer, water to solvent ([3]; Butan-1-ol, 25 C): 2 log10 K; log K of transfer, water to solvent ([3]; Butan-2-ol, 25 C): 1.94 log10 K; log K of transfer, water to solvent ([3]; Butanone, 25 C): 2.1 log10 K; log K of transfer, water to solvent ([3]; Hexane, 25 C): 2.25 log10 K; log K of transfer, water to solvent ([3]; Pentan-1-ol, 25 C): 1.94 log10 K; log K of transfer, water to solvent ([3]; Propan-1-ol, 25 C): 1.96 log10 K; log K of transfer, water to solvent ([3]; Propan-2-ol, 25 C): 1.94 log10 K
